{"source": "patent US20180153870A1", "about": "“BIPERIDEN FOR TREATING CANCER” (Universitätsklinikum Hamburg-Eppendorf, priority 2015, published 2018)", "key": {"MALT1": {"molecular_target": "T1, MALT1 (Homo sapiens, UniProt Q9UDY8)", "T1 construct": "endogenous in cells; host or cells: Panc-1, Panc-2, HPDE, Jurkat (PMA-stimulated and non-stimulated)", "T1 sequence (Q9UDY8 1-824)": "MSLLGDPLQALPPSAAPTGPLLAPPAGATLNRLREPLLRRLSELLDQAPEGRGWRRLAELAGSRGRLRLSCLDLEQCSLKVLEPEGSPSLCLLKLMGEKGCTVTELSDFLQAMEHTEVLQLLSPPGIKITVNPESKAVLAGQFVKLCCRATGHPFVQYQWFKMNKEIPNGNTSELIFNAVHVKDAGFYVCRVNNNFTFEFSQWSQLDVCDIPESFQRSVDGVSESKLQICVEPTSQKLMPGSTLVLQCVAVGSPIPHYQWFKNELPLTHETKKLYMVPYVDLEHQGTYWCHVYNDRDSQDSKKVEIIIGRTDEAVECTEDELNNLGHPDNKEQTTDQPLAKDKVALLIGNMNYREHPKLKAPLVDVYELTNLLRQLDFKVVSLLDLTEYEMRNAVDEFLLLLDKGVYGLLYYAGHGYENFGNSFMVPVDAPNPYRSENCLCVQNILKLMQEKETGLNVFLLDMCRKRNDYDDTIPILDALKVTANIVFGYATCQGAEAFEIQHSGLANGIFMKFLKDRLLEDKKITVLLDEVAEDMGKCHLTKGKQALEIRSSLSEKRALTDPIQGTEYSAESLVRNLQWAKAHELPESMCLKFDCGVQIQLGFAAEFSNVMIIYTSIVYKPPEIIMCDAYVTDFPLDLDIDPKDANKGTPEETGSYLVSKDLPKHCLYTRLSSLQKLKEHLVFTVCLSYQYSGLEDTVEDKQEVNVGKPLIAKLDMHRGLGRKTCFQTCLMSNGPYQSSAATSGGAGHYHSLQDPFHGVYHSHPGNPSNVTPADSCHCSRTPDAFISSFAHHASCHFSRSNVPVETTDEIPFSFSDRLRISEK", "assay": "MALT1 activity in treated cells (immunoprecipitation, AC-LRSR-AMC cleavage)", "assay_type": "cell-based", "method": "The MALT1 activity was measured in the pancreatic cancer cells Panc-1, Panc-2 and in the reference line HPDE as well as in the PMA-stimulated and non-stimulated Jurkat cells. In order to examine whether mepazine, biperiden or a combination of both active ingredients influence the MALT1 activity and pancreatic cancer cells, an assay was performed as described in Nagel et al.. For this purpose, the pancreatic cancer cell lines and the reference cell lines were treated with biperiden (29.6 μg/ml), mepazine (25 μM), a combination of both active ingredients (15 μM mepazine+3.71 μg/ml biperiden) or only with DMSO. The cells were subsequently lysed and precipitated with mouse anti-MALT1 antibody (SC-76677, Santa Cruz, Calif., USA) as previously described by Gungor et al.. As described in the protocol, the fluorogenic substrate AC-LRSR-AMC, which was derived from the C-terminal BCL 10 cleavage site, was used as a substrate for MALT1. The cleavage activity of MALT1 was subsequently determined as relative fluorescence units by a microtiter plate reader (FLUOstar, Omega, BMG Labtech).\nThe results were determined after 24 hours of incubation with mepazine, biperiden, or a combination of both active ingredients. It was shown that pancreatic cancer cell lines as well as non-malignant, immortalized HPDE cell lines had constitutive MALT1 activity, although to a different extent. As a reference, a non-stimulated Jurkat cell line and a Jurkat cell line that was activated with PMA were examined."}, "L3.6pl res": {"system": "L3.6pl res", "assay": "cleaved caspase 3 sandwich ELISA (apoptosis), L3.6pl res", "assay_type": "cell-based, human", "settings": "29.6 μg/ml biperiden", "method": "(§1) To determine the effect of biperiden, mepazine and combinations of the two active ingredients on apoptosis in cell lines, a “cleaved caspase 3” sandwich ELISA was used. The pancreatic cancer cell lines L3.6pl res, L3.6pl wt, Panc-1, Panc-2 and the reference cell line HPDE were treated with 29.6 μg/ml biperiden or 25 μM mepazine or 15 μM mepazine+3.7 μg/ml biperiden or only with vehicle (DMSO). The cleaved caspase 3 was measured 24, 48 and 72 hours after incubation. The apoptosis within the cells was measured using a PathScan “cleaved caspase 3” sandwich ELISA (Cell Signaling, #7190C) according to the manufacturers instructions. Each experiment was carried out at least 3 times in duplicate."}, "Panc-1": {"system": "Panc-1", "assay": "cleaved caspase 3 sandwich ELISA (apoptosis), Panc-1", "assay_type": "cell-based, human", "settings": "29.6 μg/ml biperiden, after 24 hours", "method": "as §1"}, "BxPC3": {"system": "BxPC3", "assay": "cleaved caspase 3 sandwich ELISA (apoptosis), BxPC3", "assay_type": "cell-based, human", "settings": "29.6 μg/ml biperiden", "method": "[The procedure below names another cell line; the source lists this cell line under the same test.] as §1"}, "L3.6pl wt": {"system": "L3.6pl wt", "assay": "cleaved caspase 3 sandwich ELISA (apoptosis), L3.6pl wt", "assay_type": "cell-based, human", "settings": "29.6 μg/ml biperiden", "method": "as §1"}, "[1]": {"system": "tested cell lines (L3.6pl res, L3.6pl wt, Panc-1, Panc-2, BxPC3, HPDE)", "assay": "cleaved caspase 3 sandwich ELISA (apoptosis), all tested cell lines", "assay_type": "cell-based, human", "settings": "29.6 μg/ml biperiden", "method": "To determine the effect of biperiden, mepazine and combinations of the two active ingredients on apoptosis in cell lines, a “cleaved caspase 3” sandwich ELISA was used. […] The cleaved caspase 3 was measured 24, 48 and 72 hours after incubation. The apoptosis within the cells was measured using a PathScan “cleaved caspase 3” sandwich ELISA (Cell Signaling, #7190C) according to the manufacturers instructions. Each experiment was carried out at least 3 times in duplicate."}, "Panc-2": {"system": "Panc-2", "assay": "cleaved caspase 3 sandwich ELISA (apoptosis), Panc-2", "assay_type": "cell-based, human", "settings": "29.6 μg/ml biperiden", "method": "as §1"}, "HPDE": {"system": "HPDE", "assay": "cleaved caspase 3 sandwich ELISA (apoptosis), HPDE", "assay_type": "cell-based, human", "settings": "29.6 μg/ml biperiden", "method": "as §1"}}, "data": [{"smiles": "CN1CCCC(CN2c3ccccc3Sc3ccccc32)C1", "note": "(stereo not drawn) [mepazine]", "values": [{"measurement": "MALT1 activity", "setting": "MALT1; HPDE, 25 μM mepazine, 24 hours of incubation", "value": "did not influence the MALT1 activity"}, {"measurement": "MALT1 activity", "setting": "MALT1; Panc-1, 25 μM mepazine, immediately after addition of the MALT1 substrate and 10, 30, 60 and 90 minutes thereafter, statistically significant", "value": "the MALT1 activity was reduced"}, {"measurement": "MALT1 activity", "setting": "MALT1; Panc-2, 25 μM mepazine", "value": "reduced the MALT1 activity, whereas this reduction however was not statistically significant"}]}, {"smiles": "OC(CCN1CCCCC1)(c1ccccc1)C1CC2C=CC1C2", "note": "(stereo not drawn) [biperiden]", "values": [{"measurement": "cleaved caspase 3", "setting": "L3.6pl res; after 24 hours", "value": "770.0±72.5", "unit": "RLU"}, {"measurement": "increase of apoptosis rate compared to vehicle", "setting": "L3.6pl res; after 24 hours, p=0.008", "value": 274, "unit": "%"}, {"measurement": "cleaved caspase 3", "setting": "L3.6pl res; after 48 hours", "value": "848.1±45.7", "unit": "RLU"}, {"measurement": "increase of apoptosis rate compared to vehicle", "setting": "L3.6pl res; after 48 hours, p=0.003", "value": 273.8, "unit": "%"}, {"measurement": "cleaved caspase 3", "setting": "L3.6pl res; after 72 hours", "value": "633.3±55.7", "unit": "RLU"}, {"measurement": "increase of apoptosis rate compared to vehicle", "setting": "L3.6pl res; after 72 hours, p=0.021", "value": 204.0, "unit": "%"}, {"measurement": "cleaved caspase 3", "setting": "Panc-1", "value": "325.1±48.3", "unit": "RLU"}, {"measurement": "increase of apoptosis rate compared to vehicle", "setting": "Panc-1; p=0.049", "value": 125.3, "unit": "%"}, {"measurement": "cleaved caspase 3", "setting": "BxPC3; after 24 hours", "value": "813.1±37.7", "unit": "RLU"}, {"measurement": "increase of apoptosis rate compared to vehicle", "setting": "BxPC3; after 24 hours, p=0.002", "value": 369.8, "unit": "%"}, {"measurement": "cleaved caspase 3", "setting": "BxPC3; after 48 hours", "value": "1046.1 ± 34.7", "unit": "RLU"}, {"measurement": "increase of apoptosis rate compared to vehicle", "setting": "BxPC3; after 48 hours, p=0.004", "value": 357.5, "unit": "%"}, {"measurement": "cleaved caspase 3", "setting": "BxPC3; after 72 hours", "value": "862.8 ± 85.2", "unit": "RLU"}, {"measurement": "increase of apoptosis rate compared to vehicle", "setting": "BxPC3; after 72 hours, p=0.032", "value": 230.9, "unit": "%"}, {"measurement": "MALT1 activity", "setting": "MALT1; HPDE, 29.7 μg/ml biperiden, 10, 30 and 60 minutes after incubation with the MALT1 substrate, significantly (p=0.002; p=0.005; p=0.012)", "value": "reduced the MALT1 activity"}, {"measurement": "MALT1 activity", "setting": "MALT1; Panc-1, 29.7 μg/ml biperiden", "value": "visibly reduced the MALT1 activity; however, this effect was not statistically significant"}, {"measurement": "MALT1 activity", "setting": "MALT1; Panc-2, 29.7 μM biperiden, immediately and 10 minutes after addition of the MALT1 substrate, statistically significant (p=0.011; p=0.031)", "value": "the MALT1 activity was reduced"}, {"measurement": "cleaved caspase 3", "setting": "L3.6pl wt; after 24 hours", "value": "443.4±18.1", "unit": "RLU"}, {"measurement": "increase of apoptosis rate compared to vehicle", "setting": "L3.6pl wt; after 24 hours, p<0.001", "value": 210.4, "unit": "%"}, {"measurement": "cleaved caspase 3", "setting": "L3.6pl wt; after 48 hours", "value": "386.2±15.9", "unit": "RLU"}, {"measurement": "increase of apoptosis rate compared to vehicle", "setting": "L3.6pl wt; after 48 hours, p=0.028", "value": 83.5, "unit": "%"}, {"measurement": "apoptosis", "setting": "[1]", "value": "increased apoptosis was observed in all cell lines"}, {"measurement": "cleaved caspase 3", "setting": "Panc-2; after 24 hours", "value": "360.0±11.0", "unit": "RLU"}, {"measurement": "increase of apoptosis rate compared to vehicle", "setting": "Panc-2; after 24 hours, p=0.029", "value": 109.1, "unit": "%"}, {"measurement": "cleaved caspase 3", "setting": "Panc-2; after 48 hours", "value": "306.0±74.8", "unit": "RLU"}, {"measurement": "increase of apoptosis rate compared to vehicle", "setting": "Panc-2; after 48 hours, p=0.047", "value": 65.3, "unit": "%"}, {"measurement": "cleaved caspase 3", "setting": "HPDE; after 48 hours", "value": "265.3±27.8", "unit": "RLU"}, {"measurement": "increase of apoptosis rate compared to vehicle", "setting": "HPDE; after 48 hours, p=0.037", "value": 132, "unit": "%"}, {"measurement": "cleaved caspase 3", "setting": "HPDE; after 72 hours", "value": "368.4±33.5", "unit": "RLU"}, {"measurement": "increase of apoptosis rate compared to vehicle", "setting": "HPDE; after 72 hours, p=0.002", "value": 283.9, "unit": "%"}]}]}
